Test results from US10611740B2, “Aryl dihydro-2H-benzo[b][1,4]oxazine sulfonamide and related compounds for use as agonists of RORγ and the treatment of disease” (Lycera Corporation, priority 2015, dated 2020).
pEC50: −log10 of the molar value.

What was measured:
[1] = target: T1, RORγ-LBD (Homo sapiens, UniProt P51449); experiment: RORγ-Ligand Binding Domain (LBD) TR-FRET Assay; format: biochemical;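 for TR-FRET Assay Max Response: 665/615 nm ratio relative to signal without ursolic acid or compound set at 100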
T1 construct: made in house; host or cells: SF9 cells (baculovirus)
T1 sequence (P51449 269-508 limits assumed): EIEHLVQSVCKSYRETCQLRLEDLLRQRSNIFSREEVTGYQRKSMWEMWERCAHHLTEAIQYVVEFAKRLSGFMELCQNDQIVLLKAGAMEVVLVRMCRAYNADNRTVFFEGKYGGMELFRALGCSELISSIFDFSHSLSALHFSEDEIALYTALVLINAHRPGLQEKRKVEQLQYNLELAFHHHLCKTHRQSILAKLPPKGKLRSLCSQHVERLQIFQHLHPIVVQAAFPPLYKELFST
Procedure, shortened: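 TR-FRET read-out using a biotin-tagged SRC1 coactivator LXXLL peptide (200 nM final), with the antagonist ursolic acid present at 2 μM final. Receptor is His-tagged LBD expressed in SF9 cells, ~3 nM final in pH 7.0 Tris/KCl/EDTA/DTT/BSA buffer; compounds in 1% DMSO final.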

[2] = target: T2, Gal4-RORγ-LBD (Homo sapiens, UniProt P51449); experiment: Gal4-RORγ Luciferase Reporter Assay in HEK-293T Cells; format: cell-based; details: HEK-293 cells
T2 construct: expressed in transfected cells; host or cells: HEK-293 cells (pcDNA3.1neo plasmid)
T2 sequence (P51449 269-508 limits assumed): T1 sequence (P51449 269-508 limits assumed)
Procedure, shortened: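 Luminescence read-out (One-Glo, 10 min RT) after overnight compound exposure at 37 °C in HEK-293 cells carrying Gal4-RORγ-LBD plus a Gal4-luciferase reporter, in the presence of 2 μM ursolic acid. Max Response is the upper plateau from a 4-parameter logistic fit, normalized to untreated signal = 100.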

[3] = luciferase reporter, with 2 μM ursolic acid

Row | Compound | pEC50 [1] | TR-FRET Assay Max Response [1] | pEC50 [2, 3] | Gal4-RORγ Assay Max Response [2, 3] | pEC50 ([2]; 2 μM ursolic acid) | Gal4-RORγ Assay Max Response ([2]; 2 μM ursolic acid)
1 | O=C(O)CC[C@H]1CN(S(=O)(=O)c2cccc(C(F)(F)F)c2)c2cc(-c3cccc(Cl)c3)c(Cl)cc2O1 [Compound 7, (S)-3-(7-chloro-6-(3-chlorophenyl)-4-((3-(trifluoromethyl)phenyl)sulfonyl)-3,4-dihydro-2H-benzo[b][1,4]oxazin-2-yl)propanoic acid] | > 6.30 | **** (The symbol “****” indicates a value greater than 200) | > 6.30 | ** (The symbol “**” indicates a value in the range of greater than 90 to 150) | – | –
2 | O=C(O)CC[C@H]1CN(S(=O)(=O)c2cccc(C(F)(F)F)c2)c2cc(-c3cccc(Cl)c3)cc(F)c2O1 [Compound 8, (S)-3-(6-(3-chlorophenyl)-8-fluoro-4-((3-(trifluoromethyl)phenyl)sulfonyl)-3,4-dihydro-2H-benzo[b][1,4]oxazin-2-yl)propanoic acid] | > 6.30 | **** (The symbol “****” indicates a value greater than 200) | > 6.30 | ** (The symbol “**” indicates a value in the range of greater than 90 to 150) | – | –
3 | O=C(O)C1CCN(C(=O)CC[C@H]2CN(S(=O)(=O)c3cccc(C(F)(F)F)c3)c3cc(-c4cccc(Cl)c4)cc(F)c3O2)CC1 [Compound 9, (S)-1-(3-(6-(3-chlorophenyl)-8-fluoro-4-((3-(trifluoromethyl)phenyl)sulfonyl)-3,4-dihydro-2H-benzo[b][1,4]oxazin-2-yl)propanoyl)piperidine-4-carboxylic acid] | > 6.30 | **** (The symbol “****” indicates a value greater than 200) | > 6.30 | ** (The symbol “**” indicates a value in the range of greater than 90 to 150) | – | –
4 | CC(C)(O)CC[C@H]1CN(S(=O)(=O)c2cccc(C(F)(F)F)c2)c2cc(-c3cc(F)ccc3F)ccc2O1 [Compound 10, (S)-4-(6-(2,5-difluorophenyl)-4-((3-(trifluoromethyl)phenyl)sulfonyl)-3,4-dihydro-2H-benzo[b][1,4]oxazin-2-yl)-2-methylbutan-2-ol] | > 6.30 | **** (The symbol “****” indicates a value greater than 200) | > 6.30 | ** (The symbol “**” indicates a value in the range of greater than 90 to 150) | – | –
5 | O=c1[nH]nc(CC[C@H]2CN(S(=O)(=O)c3cccc(C(F)(F)F)c3)c3cc(-c4cc(F)ccc4F)ccc3O2)o1 [Compound 11, (S)-5-(2-(6-(2,5-difluorophenyl)-4-((3-(trifluoromethyl)phenyl)sulfonyl)-3,4-dihydro-2H-benzo[b][1,4]oxazin-2-yl)ethyl)-1,3,4-oxadiazol-2(3H)-one] | > 6.30 | **** (The symbol “****” indicates a value greater than 200) | > 6.30 | ** (The symbol “**” indicates a value in the range of greater than 90 to 150) | – | –
6 | CC(C)(C)OC(=O)NCC[C@H]1CN(S(=O)(=O)c2cccc(C(F)(F)F)c2)c2cc(-c3cc(F)ccc3F)ccc2O1 [Compound 12, tert-butyl (S)-(2-(6-(2,5-difluorophenyl)-4-((3-(trifluoromethyl)phenyl)sulfonyl)-3,4-dihydro-2H-benzo[b][1,4]oxazin-2-yl)ethyl)carbamate] | > 6.30 | **** (The symbol “****” indicates a value greater than 200) | > 6.30 | * (The symbol “*” indicates a value in the range of 25 to 90) | – | –
7 | CC(=O)NCC[C@H]1CN(S(=O)(=O)c2cccc(C(F)(F)F)c2)c2cc(-c3cc(F)ccc3F)ccc2O1 [Compound 13, (S)—N-(2-(6-(2,5-difluorophenyl)-4-((3-(trifluoromethyl)phenyl)sulfonyl)-3,4-dihydro-2H-benzo[b][1,4]oxazin-2-yl)ethyl)acetamide] | > 6.30 | **** (The symbol “****” indicates a value greater than 200) | – | – | > 6.30 | ** (The symbol “**” indicates a value in the range of greater than 90 to 150)
8 | O=C(NC[C@H]1CN(S(=O)(=O)c2cccc(C(F)(F)F)c2)c2cc(-c3cc(F)ccc3F)ccc2O1)N1CCOCC1 [Compound 16, (S)—N-((6-(2,5-difluorophenyl)-4-((3-(trifluoromethyl)phenyl)sulfonyl)-3,4-dihydro-2H-benzo[b][1,4]oxazin-2-yl)methyl)morpholine-4-carboxamide] | > 6.30 | **** (The symbol “****” indicates a value greater than 200) | – | – | > 6.30 | ** (The symbol “**” indicates a value in the range of greater than 90 to 150)
9 | CC(C)(O)C(=O)NC[C@H]1CN(S(=O)(=O)c2cccc(C(F)(F)F)c2)c2cc(-c3cc(F)ccc3F)ccc2O1 [Compound 17, (S)—N-((6-(2,5-difluorophenyl)-4-((3-(trifluoromethyl)phenyl)sulfonyl)-3,4-dihydro-2H-benzo[b][1,4]oxazin-2-yl)methyl)-2-hydroxy-2-methylpropanamide] | > 6.30 | **** (The symbol “****” indicates a value greater than 200) | – | – | > 6.30 | ** (The symbol “**” indicates a value in the range of greater than 90 to 150)
10 | O=C(O)C1CC(=O)N(C[C@H]2CN(S(=O)(=O)c3cccc(C(F)(F)F)c3)c3cc(-c4cc(F)ccc4F)ccc3O2)C1 (stereo partly drawn) [Compound 18, 1-(((S)-6-(2,5-difluorophenyl)-4-((3-(trifluoromethyl)phenyl)sulfonyl)-3,4-dihydro-2H-benzo[b][1,4]oxazin-2-yl)methyl)-5-oxopyrrolidine-3-carboxylic acid] | > 6.30 | **** (The symbol “****” indicates a value greater than 200) | – | – | 5.30 to 6.30 | ** (The symbol “**” indicates a value in the range of greater than 90 to 150)
11 | O=C(O)CCC[C@H]1CN(S(=O)(=O)c2cccc(C(F)(F)F)c2)c2cc(-c3cccc(F)c3F)ccc2O1 [Compound 21A, (S)-4-(6-(2,3-difluorophenyl)-4-((3-(trifluoromethyl)phenyl)-sulfonyl)-3,4-dihydro-2H-benzo[b][1,4]oxazin-2-yl)butanoic acid] | > 6.30 | **** (The symbol “****” indicates a value greater than 200) | > 6.30 | ** (The symbol “**” indicates a value in the range of greater than 90 to 150) | – | –
12 | COc1cccc(-c2ccc3c(c2)N(S(=O)(=O)c2cccc(C(F)(F)F)c2)C[C@H](CCCC(=O)O)O3)c1 [Compound 21B, (S)-4-(6-(3-methoxyphenyl)-4-((3-(trifluoromethyl)phenyl)sulfonyl)-3,4-dihydro-2H-benzo[b][1,4]-oxazin-2-yl)butanoic acid] | > 6.30 | **** (The symbol “****” indicates a value greater than 200) | > 6.30 | ** (The symbol “**” indicates a value in the range of greater than 90 to 150) | – | –
13 | O=C(O)CCC[C@H]1CN(S(=O)(=O)c2cccc(C(F)(F)F)c2)c2cc(-c3cccc(C(F)(F)F)n3)ccc2O1 [Compound 21C, (S)-4-(4-((3-(trifluoromethyl)-phenyl)sulfonyl)-6-(6-(trifluoromethyl)pyridin-2-yl)-3,4-dihydro-2H-benzo[b][1,4]oxazin-2-yl)butanoic acid] | > 6.30 | **** (The symbol “****” indicates a value greater than 200) | > 6.30 | *** (The symbol “***” indicates a value in the range of greater than 150 to 200) | – | –
14 | O=C(O)CCC[C@H]1CN(S(=O)(=O)c2cccc(C(F)(F)F)c2)c2cc(-c3cc(F)cc(F)c3Cl)ccc2O1 [Compound 21D, (S)-4-(6-(2-chloro-3,5-difluorophenyl)-4-((3-(trifluoromethyl)phenyl)sulfonyl)-3,4-dihydro-2H-benzo[b][1,4]-oxazin-2-yl)butanoic acid] | > 6.30 | *** (The symbol “***” indicates a value in the range of greater than 150 to 200) | > 6.30 | *** (The symbol “***” indicates a value in the range of greater than 150 to 200) | – | –
15 | O=C(O)CC[C@H]1CN(S(=O)(=O)c2cccc(C(F)(F)F)c2)c2cc(-c3cccc(C(F)(F)F)n3)cc(F)c2O1 [Compound 22A, (S)-3-(8-fluoro-4-((3-(trifluoromethyl)phenyl)-sulfonyl)-6-(6-(trifluoromethyl)pyridin-2-yl)-3,4-dihydro-2H-benzo[b][1,4]oxazin-2-yl)propanoic acid] | > 6.30 | **** (The symbol “****” indicates a value greater than 200) | > 6.30 | ** (The symbol “**” indicates a value in the range of greater than 90 to 150) | – | –
